Data as given in patent US5470862A, “Substituted pyrazolyl compounds and methods employing such compounds” (Ohmeda Pharmaceutical Products Division Inc., priority 1995, dated 1995).

What follows are compounds tested on rats (assay: Loss of righting after intravenous administration (rat)). Conditions: 20 min; rat (asterisk), intravenous (lateral tail vein), 20 minute observation; acid addition salts, values corrected for the salts.
Assay type: in vivo
Description: (§1) The acid addition salts of the compounds were dissolved in sterile water for injection, U.S.P, to form a solution, the concentration of which varied from 0.001 mg/ml to 5 mg/ml. Mice or rats were used for the tests. The test solution was administered to the test animal intravenously through the lateral tail vein. The animals were observed over a 20 minute period for loss of righting which is defined as the animal remaining in a supine position for 30 seconds. Five to ten mice and three to six rats were utilized for each dosage. The ED50 was calculated for each test compound either by linear regression or by a standard computer program utilizing the method of Litchfield and Wilcoxon, J. Pharmacol. Exp. Ther., vol. 96, p. 99 (1949). Since different animals were used, the ED50 values in Table 1 are those determined in the mouse except those values marked with an asterisk which were determined in the rat.

Going from `CCOC(=O)c1cc(-c2nnco2)n(C(C)c2ccccn2)n1` (stereo not drawn) to `CCOC(=O)c1cc(-c2ncco2)n(C(C)c2ccccn2)n1` (stereo not drawn), the ED50 falls from 7.2 mg/kg to 0.85 mg/kg (8.5-fold).

`CCOC(=O)c1cc(-c2csc(-c3cccnc3)n2)nn1C(C)c1ccccn1` (stereo not drawn) and `CCOC(=O)c1cc(-c2cnccn2)nn1C(C)c1ccccn1` (stereo not drawn) are within 1.5-fold of each other in ED50: 1.1 mg/kg for the first, 1.5 mg/kg for the second.

Going from `CCOC(=O)c1cc(-c2coc(C)n2)nn1C(C)c1ccccn1` (stereo not drawn) to `CCOC(=O)c1cc(-c2coc(C)n2)n(C(C)c2ccccn2)n1` (stereo not drawn), the ED50 rises from 1.2 mg/kg to 8.8 mg/kg (7.3-fold).

Going from `CCOC(=O)c1cc(-c2ocnc2C)n(C(C)c2ccccn2)n1` (stereo not drawn) to `CCOC(=O)c1cc(-c2ncc(C)o2)n(C(C)c2ccccn2)n1` (stereo not drawn), the ED50 falls from 23.2 mg/kg to 0.85 mg/kg (27-fold).

Going from `CCOC(=O)c1cc(-c2cc(C)no2)nn1C(C)c1ccccn1` (stereo not drawn) to `CCOC(=O)c1cc(-c2cc(C)no2)n(C(C)c2ccccn2)n1` (stereo not drawn), the ED50 rises from 3.8 mg/kg to 7.2 mg/kg (1.9-fold).

`CCOC(=O)c1cc(-c2ncc(C)o2)nn1C(C)c1ccccn1` (stereo not drawn) and `CCOC(=O)c1cc(-c2nc(C)no2)nn1C(C)c1ccccn1` (stereo not drawn) are within 1.5-fold of each other in ED50: 1.1 mg/kg for the first, 0.79 mg/kg for the second.

Compared with `CCOC(=O)c1cc(-c2ccn(C)c2)n(C(C)c2ccccn2)n1` (stereo not drawn), `CCOC(=O)c1cc(-c2cccc(N)c2)nn1C(C)c1ccccn1` (stereo not drawn) is 7.9-fold lower in ED50: 4.2 mg/kg for the first, 0.53 mg/kg for the second.

Going from `CCOC(=O)c1cc(-c2cccnc2)nn1Cc1ccccn1` to `CCOC(=O)c1cc(-c2cccnc2)n(Cc2ccccn2)n1`, the ED50 rises from 7 mg/kg to 17.7 mg/kg (2.5-fold).

Compared with `CCOC(=O)c1cc(-c2cccc(C)n2)nn1C(C)c1ccccn1` (stereo not drawn), `CCOC(=O)c1cc(-c2ccccc2N)nn1C(C)c1ccccn1` (stereo not drawn) is 2-fold lower in ED50: 1.6 mg/kg for the first, 0.81 mg/kg for the second.

Compared with `CCOC(=O)c1cc(-c2ccccn2)nn1Cc1ccccn1`, `CCOC(=O)c1cc(-c2ccccn2)nn1Cc1cccnc1` is 6-fold higher in ED50: 5.1 mg/kg for the first, 30.5 mg/kg for the second.

`CCOC(=O)c1cc(-c2ccc(N)cc2)nn1C(C)c1ccccn1` (stereo not drawn) and `CCOC(=O)c1cc(-c2ccccc2)nn1C(C)c1ccccn1` (stereo not drawn) are within 1.5-fold of each other in ED50: 2.7 mg/kg for the first, 2.8 mg/kg for the second.

`CCOC(=O)c1cc(-c2cccc(N(C)C)c2)nn1C(C)c1ccccn1` (stereo not drawn) and `CCCNC(=O)c1cc(C(=O)OCC)n(C(C)c2ccccn2)n1` (stereo not drawn) [CH3 / CONHC3 H7 / CO2 Et / N / CH] are within 1.5-fold of each other in ED50: 1.5 mg/kg for the first, 1.8 mg/kg for the second.

In the case of `CCOC(=O)C(=O)c1cc(C(=O)OCC)n(C(C)c2ccccn2)n1` (stereo not drawn) [CH3 / COCO2 Et / CO2 Et / N / CH], the ED50 is reported as 2.86 mg/kg.

The compounds below were run on mice (assay: Loss of righting after intravenous administration (mouse)). Conditions: 20 min, intravenous (lateral tail vein), 20 minute observation, acid addition salts, values corrected for the salts.
Assay type: in vivo
Description: as §1

Going from `C=C(C)c1cc(C(=O)OCC)nn1C(C)c1ccccn1` (stereo not drawn) to `CCOC(=O)c1cc(C(C)=O)n(C(C)c2ccccn2)n1` (stereo not drawn) [CH3 / CO2 Et / CH3 CO / N / CH], the ED50 rises from 8.9 mg/kg to 19.7 mg/kg (2.2-fold).

Compared with `CCOC(=O)c1cc(-c2nccs2)nn1C(C)c1ccccn1` (stereo not drawn), `CCOC(=O)c1cc(-c2cocn2)nn1C(C)c1ccccn1` (stereo not drawn) is 2.4-fold higher in ED50: 3.2 mg/kg for the first, 7.7 mg/kg for the second.

`CCOC(=O)c1cc(-c2cccs2)n(C(C)c2ccccn2)n1` (stereo not drawn) and `CCOC(=O)c1cc(-c2ccsc2)n(C(C)c2ccccn2)n1` (stereo not drawn) are the same in ED50: 17.6 mg/kg for the first, 17.6 mg/kg for the second.

Compared with `CCOC(=O)c1cc(-c2ccco2)nn1C(C)c1ccccn1` (stereo not drawn), `CCOC(=O)c1cc(-c2cnco2)nn1C(C)c1ccccn1` (stereo not drawn) is 2.2-fold higher in ED50: 1.3 mg/kg for the first, 2.8 mg/kg for the second.

Compared with `CCOC(=O)c1cc(-c2ccco2)nn1Cc1ccccn1`, `CCOC(=O)c1cc(-c2ccco2)n(Cc2ccccn2)n1` is 2-fold higher in ED50: 8.9 mg/kg for the first, 17.6 mg/kg for the second.

Compared with `CCOC(=O)c1cc(-c2cccs2)n(Cc2ccccn2)n1`, `CCOC(=O)c1cc(-c2cccs2)nn1Cc1ccccn1` is 2-fold higher in ED50: 14.3 mg/kg for the first, 28.3 mg/kg for the second.

Going from `CCOC(=O)c1cc(-c2nnco2)nn1C(C)c1ccccn1` (stereo not drawn) to `CCOC(=O)c1cc(-c2ocnc2C)nn1C(C)c1ccccn1` (stereo not drawn), the ED50 falls from 9 mg/kg to 4.7 mg/kg (1.9-fold).

Compared with `CCOC(=O)c1cc(-c2ccccn2)nn1C(C)c1ccccn1` (stereo not drawn), `CCOC(=O)c1cc(-c2ccccn2)n(C(C)c2ccccn2)n1` (stereo not drawn) is 5-fold higher in ED50: 3.5 mg/kg for the first, 17.5 mg/kg for the second.

First: CCOC(=O)c1cc(-c2ccncc2)nn1C(C)c1ccccn1 (stereo not drawn)
Second: CCOC(=O)c1cc(-c2cccnc2)nn1C(C)c1ccccn1 (stereo not drawn)
The ED50 of the first is 5.2-fold higher: 12 mg/kg for the first, 2.3 mg/kg for the second.

Compared with `CCOC(=O)c1nc(-c2cc(C(=O)OCC)n(C(C)c3ccccn3)n2)cs1` (stereo not drawn), `CCOC(=O)c1cc(-c2csc(C(=O)OCC)n2)n(C(C)c2ccccn2)n1` (stereo not drawn) is 2.3-fold higher in ED50: 13.6 mg/kg for the first, 31.6 mg/kg for the second.

Going from `CCOC(=O)c1cc(-c2csc(-c3ccncc3)n2)nn1C(C)c1ccccn1` (stereo not drawn) to `CCOC(=O)c1cc(-c2csc(-c3ccncc3)n2)n(C(C)c2ccccn2)n1` (stereo not drawn), the ED50 rises from 5.7 mg/kg to 51.4 mg/kg (9-fold).

First: CCOC(=O)c1cc(-c2cn3ccccc3n2)nn1C(C)c1ccccn1 (stereo not drawn)
Second: CCOC(=O)c1cc(-c2cccn2C)nn1C(C)c1ccccn1 (stereo not drawn)
The ED50 of the first is 15-fold higher: 14.3 mg/kg for the first, 0.95 mg/kg for the second.

Compared with `CCOC(=O)c1cc(-c2cocn2)n(C(C)c2ccccn2)n1` (stereo not drawn), `CCOC(=O)c1cc(-c2cc(C)on2)n(C(C)c2ccccn2)n1` (stereo not drawn) is 1.8-fold higher in ED50: 13.4 mg/kg for the first, 23.7 mg/kg for the second.

`CCOC(=O)c1cc(-c2cc(C)on2)nn1C(C)c1ccccn1` (stereo not drawn) and `CCOC(=O)c1cc(C)nn1C(C)c1ccccn1` (stereo not drawn) [CH3 / CH3 / CO2 Et / N / CH] are within 1.5-fold of each other in ED50: 9.9 mg/kg for the first, 9 mg/kg for the second.

`CCOC(=O)c1cc(-c2cccn2C)n(C(C)c2ccccn2)n1` (stereo not drawn) and `CCOC(=O)c1cc(C)n(C(C)c2ccccn2)n1` (stereo not drawn) [CH3 / CO2 Et / CH3 / N / CH] are within 1.5-fold of each other in ED50: 6.2 mg/kg for the first, 6.9 mg/kg for the second.

Going from `CCOC(=O)c1cc(CC)nn1C(C)c1ccccn1` (stereo not drawn) [CH3 / CH2 CH3 / CO2 Et / N / CH] to `CCOC(=O)c1cc(C(C)=O)nn1C(C)c1ccccn1` (stereo not drawn) [CH3 / CH3 CO / CO2 Et / N / CH], the ED50 falls from 9.4 mg/kg to 4 mg/kg (2.4-fold).

First: CC(=O)OCc1cc(C)n(C(C)c2ccccn2)n1 (stereo not drawn) [CH3 / CH2 OCOCH3 / CH3 / N / CH]
Second: CCOC(=O)c1cc(COC(C)=O)n(C(C)c2ccccn2)n1 (stereo not drawn) [CH3 / CO2 Et / CH2 OCOCH3 / N / CH]
The ED50 of the first is 2.2-fold higher: 61.1 mg/kg for the first, 28.3 mg/kg for the second.

`CCOC(=O)c1cc(C)nn1C(C)c1cccnc1` (stereo not drawn) [CH3 / CH3 / CO2 Et / CH / N] and `CCOC(=O)c1cc(C)n(C(C)c2cccnc2)n1` (stereo not drawn) [CH3 / CO2 Et / CH3 / CH / N] are within 1.5-fold of each other in ED50: 21.5 mg/kg for the first, 26.3 mg/kg for the second.

First: CCOC(=O)c1cc(C=O)nn1C(C)c1ccccn1 (stereo not drawn) [CH3 / CHO / CO2 Et / N / CH, 3-formyl-1-(1-(2-pyridinyl)ethyl)pyrazole-5-carboxylic acid ethyl ester]
Second: CCOC(=O)c1cc(C(=O)OCC)n(C(C)c2ccccn2)n1 (stereo not drawn) [CH3 / CO2 Et / CO2 Et / N / CH, 1-[1-(2-pyridyl)ethyl]pyrazole-3,5-dicarboxylic acid diethyl ester]
The ED50 of the first is 7.1-fold higher: 9.9 mg/kg for the first, 1.4 mg/kg for the second.

Compared with `CCOC(=O)c1cc(CC)n(C(C)c2ccccn2)n1` (stereo not drawn) [CH3 / CO2 Et / CH2 CH3 / N / CH], `CCOC(=O)c1cc(COC)n(C(C)c2ccccn2)n1` (stereo not drawn) [CH3 / CO2 Et / CH2 OCH3 / N / CH] is 2-fold higher in ED50: 9.4 mg/kg for the first, 19.1 mg/kg for the second.

`CCOC(=O)c1cc(C(=O)OCC)n(C(C)c2cccnc2)n1` (stereo not drawn) [CH3 / CO2 Et / CO2 Et / CH / N] and `CCOC(=O)c1cc(C(=O)OCC)n(Cc2cccnc2)n1` [H / CO2 Et / CO2 Et / CH / N] are within 1.5-fold of each other in ED50: 8.6 mg/kg for the first, 10.4 mg/kg for the second.

`CCOC(=O)c1ccn(C(C)c2ccccn2)n1` (stereo not drawn) [CH3 / CO2 Et / H / N / CH] and `CCOC(=O)c1cc(O)n(C(C)c2ccccn2)n1` (stereo not drawn) [CH3 / CO2 Et / OH / N / CH] are within 1.5-fold of each other in ED50: 34.2 mg/kg for the first, 31 mg/kg for the second.

Going from `CCOC(=O)c1ccnn1C(C)c1ccccn1` (stereo not drawn) [CH3 / H / CO2 Et / N / CH] to `CCOC(=O)c1cc(C)nn1Cc1ccccn1` [H / CH3 / CO2 Et / N / CH], the ED50 falls from 31 mg/kg to 17.4 mg/kg (1.8-fold).

Going from `CCOC(=O)c1cc(C)nn1Cc1cccnc1` [H / CH3 / CO2 Et / CH / N] to `CCOC(=O)c1cc(C(=O)OCC)n(Cc2ccccn2)n1` [H / CO2 Et / CO2 Et / N / CH], the ED50 falls from 25.1 mg/kg to 6.9 mg/kg (3.6-fold).

`CCOC(=O)c1cc(C)n(Cc2ccccn2)n1` [H / CO2 Et / CH3 / N / CH] and `CCOC(=O)c1ccn(Cc2ccccn2)n1` [H / CO2 Et / H / N / CH] are within 1.5-fold of each other in ED50: 37.7 mg/kg for the first, 43.9 mg/kg for the second.
